From patent US6852710B2, “2-alkoxyestradiol analogs with antiproliferative and antimitotic activity” (Southwest Foundation for Biomedical Research, priority 2001, dated 2005)

Key:
NCI/ADR cells = assay: SRB assay, inhibition of proliferation, multidrug resistant line; format: cell-based, human; settings: for IC50: Homo sapiens, NCI/ADR-RES, NCI/ADR multidrug resistant, 48 hours, n=3 mean±SD; for NCI-ADR/MDA-MB-435 resistance factor: IC50 in NCI/ADR divided by IC50 in MDA-MB-435
Source text: The SK-OV-3 cell line was derived from ovarian carcinoma, the MDA-MB-435 and NCI/ADR from breast adenocarcinoma, PC3 and DU 145 from prostate carcinoma and HeLa from cervical carcinoma. The SK-OV-3, HeLa, PC3, and DU 145 and cell lines were obtained from the American Type Culture Collection, 10801 University Blvd., Manassas, Va. 20110-2209. The MDA-MB-435 cell line was obtained from the Lombardi Cancer Center of Georgetown University School of Medicine and the NCI/ADR cell line was obtained from the National Cancer Institute, Fairview Center, Suite 204, 1003 West 7th Street, Frederick, Md. 21701-8531.
(§1) Cells were plated into 96 well plates and allowed to grow and attach for 18-24 hours and then the drugs or vehicle controls were added to the wells. Each data point represents the mean of three experiments, each of which consisted of three replicates within an experiment. The cells were incubated with the drugs for 48 hours and then the cellular protein was fixed and quantified using the sulforhodamine B (SRB) assay. The absorbance of the dye is linear with respect to both cell protein and cell number (Skehan, P.; Storeng, R.; Scudiero, D., Monks; A., McMahon, J.; Vistica, D., Warren, J. T.; Bokesch, H., Kenney, S.; and Boyd, M. R., “New colorimetric cytotoxicity assay for anticancer-drug screening”, J. Natl. Cancer Inst, 82, 1107-1112 (1990)). The effects of the drugs were compared to vehicle controls and the data plotted as percent of control vs. log of drug concentration.
(§2) The IC50 is defined as the drug concentration required to inhibit cell proliferation 50% and is calculated from the linear portion of the log concentration response curve.
(§3) The IC50 values for inhibition of proliferation were calculated from the log dose response curve (n=3, mean±SD).
The effects of the analogs on a multi-drug resistant cell line were also studied. The NCI/ADR cell line is resistant to many chemotherapeutic agents by virtue of its high expression of the drug efflux pump P-glycoprotein. The NCI/ADR cell line was obtained from the National Cancer Institute, Fairview Center, Suite 204, 1003 West 7th Street, Frederick, Md. 21701-8531.
The IC50 values for inhibition of proliferation were calculated from the dose-response curves. The values represent the mean of 3 experiments ±SD. Resistance factors were calculated by dividing the IC50 of the resistant cell line, NCI/ADR, by the IC50 in a drug sensitive cell line, MDA-MB-435.

[1] = system: Human Umbilical Vein Endothelial Cells (HUVEC); assay: HUVEC proliferation (SRB assay); format: cell-based; settings: for IC50: Homo sapiens, HUVEC, SRB assay; for potency relative to 2-ME2, HUVEC proliferation: in words
Source text: FIG. 2 illustrates the effects of compounds on Human Umbilical Vein Endothelial Cells (HUVEC) proliferation. The SRB assay was used to construct the dose response curves of the agents in HUVEC cells. n=3±SD;
Two in vitro assays were used to detect the potential for antiangiogenic activity of the analogs. One assay tested the ability of the analogs to inhibit the cellular proliferation of endothelial cells as shown below (Table 4). The ability of the analogs to inhibit the proliferation of endothelial cells was tested and compared to the effects of 2-ME2. Drugs that have antiangiogenic activity inhibit the proliferation of endothelial cells.

[2] = system: Human Umbilical Vein Endothelial Cells (HUVEC); assay: HUVEC invasion, Matrigel invasion chambers; format: cell-based; settings: for IC50: Homo sapiens, HUVEC, Matrigel, 24 hours
Source text: FIG. 3 illustrates the effects of compounds on Human Umbilical Vein Endothelial Cells (HUVEC) cell invasion. Becton-Dickinson (BD) Biocoat® Matrigel® invasion chambers were used to construct dose response curves of the compounds for invasion of HUVECs. n=3±SD;
A second assay was also used to evaluate the analogs for potential antiangiogenic activity. The complex process of endothelial cell invasion and migration are key events during angiogenesis. The ability of compounds to inhibit the invasion and migration of endothelial cells through a biological membrane matrix was evaluated. Specifically, the ability of the 2-ME2 analogs, 15-dehydro-2-ME2, 14-dehydro-2-ME2 and 2-ME2-15α,16α to inhibit the invasion and migration of human umbilical vein endothelial cells (HUVEC) through Matrigel® basement membrane material and a PET membrane with 8 μm pores was evaluated. HUVECs were obtained from BioWhittaker and were used during passages of 2 to 6. BD Biocoat® Matrigel® invasion chambers were used for the assays. These modified Boyden chambers have a PET membrane with 8 μm pores that have been coated with Matrigel®. The membrane separates the upper chamber from the lower chamber. HUVECs were plated into the top chamber in media containing 0.1% bovine serum albumin with either a test compound or vehicle and allowed to invade and migrate through pores for 24 hours. The media in the lower chamber contained the chemoattractant, 10% fetal bovine, serum. Following the incubation period the cells on the top of the membrane were removed with a cotton swab and the cells that had migrated through the pores to the lower surface of the membrane were stained with hematoxylin and eosin and counted microscopically. Experiments were conducted in duplicate and the numbers of cells that migrated were counted in 10 microscope fields per transwell chamber. The data are expressed as percent of vehicle control invasion. Dose response curves were generated and are shown in FIG. 3 and the IC50s for inhibition of HUVEC invasion were determined and are presented above in Table 4. All of the 2-ME2 analogs inhibited HUVEC invasion.

SK-OV-3 cells = assay: SRB assay, inhibition of proliferation; format: cell-based; settings: Homo sapiens; SK-OV-3, 48 hours, n=3 mean±SD
Experimental: (§4) The 4 analogs of 2-ME2 set forth in Table 1 were tested for antiproliferative activity against 6 human tumor cell lines. The SK-OV-3 cell line was derived from ovarian carcinoma, the MDA-MB-435 and NCI/ADR from breast adenocarcinoma, PC3 and DU 145 from prostate carcinoma and HeLa from cervical carcinoma. The SK-OV-3, HeLa, PC3, and DU 145 and cell lines were obtained from the American Type Culture Collection, 10801 University Blvd., Manassas, Va. 20110-2209. The MDA-MB-435 cell line was obtained from the Lombardi Cancer Center of Georgetown University School of Medicine and the NCI/ADR cell line was obtained from the National Cancer Institute, Fairview Center, Suite 204, 1003 West 7th Street, Frederick, Md. 21701-8531.
as §1, §2, §3

PC3 cells = assay: SRB assay, inhibition of proliferation; format: cell-based; settings: Homo sapiens, PC-3; PC3, 48 hours, n=3 mean±SD
Experimental: as §4, §1, §2, §3

HeLa cells = assay: SRB assay, inhibition of proliferation; format: cell-based; settings: Homo sapiens, 48 hours, n=3 mean±SD
Experimental: as §4, §1, §2, §3

DU 145 cells = assay: SRB assay, inhibition of proliferation; format: cell-based, human; settings: for IC50: Homo sapiens, DU 145, 48 hours, n=3 mean±SD
Experimental: as §4, §1, §2, §3

MDA-MB-435 cells = assay: SRB assay, inhibition of proliferation; format: cell-based, human; settings: for IC50: Homo sapiens, MDA-MB-435, 48 hours, n=3 mean±SD
Experimental: as §4, §1, §2, §3

6 human tumor cell lines = assay: SRB antiproliferative assay, panel of tumor cell lines; format: cell-based; settings: for potency compared with 2-ME2, tumor cell lines: in words, 15-dehydro-2-ME2: MDA-MB-435, NCI/ADR, PC3, HeLa and SK-OV-3
Experimental: as §4, §1, §2

[3] = system: MDA-MB-435 breast cancer xenograft; assay: MDA-MB-435 breast cancer xenograft model; format: in vivo, mice; settings: for tumor growth delay: intraperitoneally daily for 30 days, time for median to reach tumor burden of 1500 mg vs control; for antitumor effect compared with 2-ME2: tumor burden versus time
Experimental: FIG. 4 illustrates the effects of compounds in an MDA-MB-435 breast cancer xenograft model. The data are the means of the groups ±SEM. Statistical significance (P<0.05) is indicated by an asterisk;
The analogs were tested for antitumor activity using an MDA-MB-435 breast cancer xenograft model. Tumor fragments of MDA-MB-435 (30 mg) were implanted subcutaneously into female athymic NCr-nu mice (SWF-1) weighing approximately 24 g. The tumor fragments were harvested from nude mice hosts. Animal weight and tumor dimensions were measured twice weekly with calipers and tumor weights estimated using 2-dimensional measurements of length and width and the formula [1×(w)^2]/2. When the tumors reached an approximate size equivalent to 175 mg (13 days after implantation) the mice were randomized to treatment or control groups and treatments were begun. The compounds were administered intraperitoneally daily for 30 days on the basis of individual animal body weights. Treatment groups contained 10 mice and the vehicle treated control group consisted of 20 mice. The mean tumor burdens were plotted for each treatment group and compared to controls. The means of the tumor burden data were analyzed for differences using a one-sided Student's t-test, with a P<0.05 considered to be significant difference. Tumor growth delay, the difference between the time for the median of each group (treatment and control) to reach a tumor burden of 1500 mg was calculated.

SMILES | IC50 (NCI/ADR cells) | NCI-ADR/MDA-MB-435 resistance factor (NCI/ADR cells) | IC50 [1] | IC50 [2] | IC50 (SK-OV-3 cells) | IC50 (PC3 cells) | IC50 (HeLa cells) | IC50 (DU 145 cells) | IC50 (MDA-MB-435 cells) | potency compared with 2-ME2, tumor cell lines (6 human tumor cell lines) | tumor growth delay [3] | antitumor effect compared with 2-ME2 [3] | potency relative to 2-ME2, HUVEC proliferation [1] | potency relative to 2-ME2 in inhibiting HUVEC invasion [2] | potency compared with 2-ME2 (MDA-MB-435 cells; MDA-MB-435 cell line, in words) | potency relative to 2-ME2 (6 human tumor cell lines; 5 of the 6 cell lines tested) | potency relative to 2-ME2 (DU 145 cells; DU 145 cell line) | NCI-ADR/MDA-MB-435 resistance factor (NCI/ADR cells; listed as vinblastine)
COc1cc2c(cc1O)CCC1C2CC[C@@]2(C)C1CC[C@@H]2O (some centres unmarked) [2-ME2, 2-Methoxyestradiol, reference compound] | 380 ± 10 nM | 0.28 | 700 ± 110 nM | 1990 ± 390 nM | 1790 ± 240 nM | 2220 ± 150 nM | 450 ± 40 nM | 4260 ± 950 nM | 1380 ± 100 nM |  |  |  |  |  |  |  |  | 
COc1cc2c(cc1O)CCC1C2CC[C@@]2(C)C1[C@H]1OC(C)(C)O[C@H]1[C@@H]2O (stereo partly drawn) [2-ME2-15α, 16α, 2-Methoxy-3,15α,16α,17β-tetrahydroxyestra-1,3,5(10)-triene 15,16-acetonide] | 4210 ± 600 nM | 1.30 | 11900 ± 2170 nM | 16000 ± 1980 nM | 5160 ± 990 nM | 5130 ± 1530 nM | 2980 ± 240 nM | 6780 ± 620 nM | 3240 ± 350 nM | generally less potent than 2-ME2 | 11.3 days | superior to 2-ME2 | less potent | less potent |  |  |  | 
COc1cc2c(cc1O)CC=C1[C@@H]2CC[C@]2(C)[C@@H](O)CC[C@@H]12 [7-dehydro-2-ME2, 2-Methoxyestra-1,3,5(10), 7-tetraen-3,17β-diol] | 2540 ± 440 nM | 1.29 | 4390 ± 370 nM |  | 4490 ± 180 nM |  |  |  | 1970 ± 400 nM | generally less potent than 2-ME2 |  |  | less potent |  | almost equipotent |  |  | 
COc1cc2c(cc1O)CC[C@H]1C3=CC[C@H](O)[C@@]3(C)CC[C@H]21 [14-dehydro-2-ME2, 2-Methoxyestra-1,3,5(10), 14-tetraen-3,17β-diol] | 56 ± 10 nM | 1.0 | 49 nM | 300 ± 20 nM | 150 ± 70 nM | 350 ± 90 nM | 50 ± 20 nM | 1580 ± 810 nM | 56 ± 2 nM |  | 10.0 days | superior to 2-ME2 | more potent than 2-ME2 | more than 6 times |  | 6-24 fold | 2.7 fold | 
CC(=O)O[C@H]1C(=O)[C@@]2(C)[C@H]([C@H](OC(=O)c3ccccc3)[C@]3(O)C[C@H](OC(=O)[C@H](O)[C@@H](NC(=O)c4ccccc4)c4ccccc4)C(C)=C1C3(C)C)[C@]1(OC(C)=O)CO[C@@H]1C[C@@H]2O [Taxol ®, reference compound] | 4460 ± 610 nM | 2218.91 |  |  |  |  |  |  | 2.01 ± 0.3 nM |  |  |  |  |  |  |  |  | 
CC[C@]1(O)C[C@@H]2CN(CCc3c([nH]c4ccccc34)[C@@](C(=O)OC)(c3cc4c(cc3OC)N(C)[C@H]3[C@@](O)(C(=O)OC)[C@H](OC(C)=O)[C@]5(CC)C=CCN6CC[C@]43[C@@H]65)C2)C1 [Vinblastine, reference compound] | 430 ± 70 nM | 139.61 |  |  |  |  |  |  | 3.08 ± 0.09 nM |  |  |  |  |  |  |  |  | 140
